Experimental data from patent US20230293490A1, “PROFILIN1:ACTIN INHIBITOR AS AN ANTI-ANGIOGENIC COMPOUND” (University of Pittsburgh- Of the Commonwealth System of …, priority 2020, published 2023).

Assays:
[1] = tested on: human dermal VEC; experiment: Matrigel cord assay (in vitro angiogenesis); assay type: cell-based; details: for concentration able to inhibit angiogenesis: matrigel cord assay, human dermal VEC
Description: (§1) Note that contrasting its effect in cells, in biochemical assay Pfn1 inhibits actin polymerization by actin sequestering, and neither compound affects actin polymerization kinetics without the presence of Pfn1 (an important screening criterion).
(§2) Cell culture, transfection and viral transduction: Murine VHL-deleted variant of RENCA (referred to as RVN cells) cells were cultured in DMEM with 10% (v/v) FBS and 1% (v/v) antibiotics. Human VHL-negative 786-0 cells (source: ATCC) were cultured in RPMI-1640 media supplemented with 10% (v/v) FBS and antibiotics. HmVEC-1, a widely used immortalized human dermal microvascular EC line (ATCC; CRL-3243—referred to as VEC), were cultured in MCDB-131 (Life Technologies; Carlsbad, CA) growth medium supplemented with 10% (v/v) FBS, 1% (v/v) antibiotics, 10 ng/mL EGF, 1 μg/mL Hydrocortisone and 10 mM L-Glutamine. For adenovirus infection, cells were plated, allowed to attach and then infected with adenovirus encoding either GFP (Ad-GFP) or Pfn1 (Ad-Pfn1) at a MOI of 500 for 24 h, before further incubation for an additional 48h in fresh culture media prior to use. For knockdown studies, cells were transfected with 50 nM of either smart-pool control or Pfn1 siRNA for 72 h.

[2] = tested on: choroidal explant; experiment: Choroidal explant angiogenesis culture (ex vivo)
[3] = tested on: human renal cancer cell line; experiment: Human renal cancer cell line migration; assay type: cell-based; details: dose dependent
[4] = tested on: human retinal endothelial cells; experiment: Angiogenic capability of human retinal endothelial cells in vitro; assay type: cell-based
[5] = tested on: RVN cells; experiment: Serum-induced chemotactic (transwell) migration of RVN cells; assay type: cell-based, murine; details: dose-dependent
Description: as §2, with “For knockdown studies, cells were transfected with 50 nM of either smart-pool control or Pfn1 siRNA for 72 h.” left out
(§3) Cell migration and proliferation assays: For single-cell migration experiments, RVN, VEC and 786-0 cells were plated in 24-well plates coated with type I collagen (Millipore) overnight. […] For cell proliferation assay, one thousand RCC cells were plated per well in 96-well plates using quadruplicate determinations, with proliferation assessed by time-course analyses of DAPI-stained nuclei based on images acquired over 3 to 5 random fields per well.

[6] = tested on: choroidal NV; experiment: Laser-induced choroidal NV (CNV) model, IVT injection; assay type: in vivo, mice; details: IVT C74 (50 μM)
Description: FIGS. 8A-8D. […] Laser-induced choroidal NV (CNV—an in vivo model that induces sub-retinal NV in response to laser injury in mice and is widely used to study NV aspects of wet AMD) in the settings of IVT injection of either DMSO (VEH) or C74 (50 μM) (panel C) and associated quantification (panel D).

[7] = tested on: Pfn1-actin interaction; experiment: Pyrene-actin polymerization assay; assay type: biochemical
Text: as §1

[8] = tested on: human renal cancer cell line; experiment: Human renal cancer cell line proliferation; assay type: cell-based; details: dose dependent
[9] = tested on: RVN cells; experiment: RVN cell proliferation assay; assay type: cell-based, murine; details: dose-dependent
Description: as §2, with “For knockdown studies, cells were transfected with 50 nM of either smart-pool control or Pfn1 siRNA for 72 h.” left out
as §3

[10] = tested on: RENCA cells; experiment: Subcutaneous RENCA tumor model, daily intratumoral injection; assay type: in vivo, Balb/c mice
Text: To determine whether C74 has any therapeutic benefit in vivo, we performed an exploratory study in which we established subcutaneous tumors by transplantation of RENCA cells in syngeneic Balb/c mice and injected either C74 or DMSO (vehicle) directly at the tumor cell inoculation site daily over a course of 19 days starting from day 1.
In vivo tumorigenesis: In 6 to 8 week old BALB/cJ mice, 1×10^6 RENCA cells were implanted subcutaneously in a 1:1 PBS:Matrigel (R&D Systems; Minneapolis, MN) mixture, supplemented with 81 μg C74 or DMSO control. Intratumoral injections were then given daily with either 320 μg C74 or control dissolved in saline, through day 19 post-implantation. On day 20, mice were sacrificed and harvested tumors were weighed. All animal experiments were performed according to the institutionally approved animal welfare guidelines.

Structure (SMILES) | concentration able to inhibit angiogenesis [1] [µM] | choroidal neovascularization ex vivo [2] | migration [3] | angiogenic capability [4] | range of concentrations reducing migration [5] [µM] | fold lower concentration than C2 to inhibit angiogenesis ([1]; C74 vs C2) [fold] | choroidal neovascularization in vivo [6] | reversal of Pfn1's inhibition of actin polymerization ([7]; actin plus Pfn1, fluorescence measures actin polymerization) | effect on actin polymerization without Pfn1 ([7]; compound alone, no Pfn1) | proliferation [8] | range of concentrations reducing proliferation [9] [µM] | average end-point tumor burden (tumor weight) ([10]; daily injection at tumor site over 19 days, tumors weighed day 20, n=10 animals) [mg] | tumor angiogenesis (CD31-positive immune-reactive region of tumor histosections) ([10]; daily intratumoral administration, relative to DMSO)
Oc1cccc(C2c3c(-c4ccccc4)nnc(O)c3Nc3nnnn32)c1 (centres unmarked) [C2, 8-(3-hydroxyphenyl)-10-phenyl-2,4,5,6,7,11,12-heptaazatricyclo[7.4.0.0^3,^7]trideca-1(13),3,5,9,11-pentaen-13-ol, reference compound] | 50 |  |  |  |  |  |  |  |  |  |  |  | 
Cc1n[nH]c(O)c1C(c1ccc(Br)cc1)c1c(C)n[nH]c1O [C74, 4-[(4-bromophenyl)(5-hydroxy-3-methyl-1H-pyrazol-4-yl)methyl]-3-methyl-1H-pyrazol-5-ol] | 10 | inhibited | reduced | inhibited | 10 to 25 | ~5 | inhibited | can reverse Pfn1's inhibition of actin polymerization | does not significantly alter actin polymerization on its own | reduced | 10 to 25 | 978.8 ± 366.0 | reduces tumor angiogenesis
